For one assay, the target named is T1, Trypsin (Bos taurus, UniProt P00760).
T1 sequence (P00760 24-246): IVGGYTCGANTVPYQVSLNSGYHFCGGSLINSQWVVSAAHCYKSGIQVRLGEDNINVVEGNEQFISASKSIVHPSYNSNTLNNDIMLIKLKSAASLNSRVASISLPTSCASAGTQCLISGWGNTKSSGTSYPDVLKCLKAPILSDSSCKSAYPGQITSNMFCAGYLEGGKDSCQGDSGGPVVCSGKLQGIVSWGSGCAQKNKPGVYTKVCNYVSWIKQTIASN
Nature of the assay: Inhibitory effect on ester-hydrolyzing activity of trypsin (TAMe substrate). The conditions noted are these: in vitro, TAMe, pH 8.6, 37° C.; Table 4 bracketed value; read-out: Trypsin ID50. It is filed as biochemical. The method, then:
(§1) The enzyme-inhibitory activities in vitro of the compounds of this invention were measured by the following procedure according to the method of M. Muramatsu et al. [[…]. […] After the incubation, 1.5 ml of 2 M alkaline hydroxylamine was added and thoroughly mixed, and allowed to stand at room temperature for 15 minutes.
Human Plasmin, sequence (P00747 581-810 limits assumed): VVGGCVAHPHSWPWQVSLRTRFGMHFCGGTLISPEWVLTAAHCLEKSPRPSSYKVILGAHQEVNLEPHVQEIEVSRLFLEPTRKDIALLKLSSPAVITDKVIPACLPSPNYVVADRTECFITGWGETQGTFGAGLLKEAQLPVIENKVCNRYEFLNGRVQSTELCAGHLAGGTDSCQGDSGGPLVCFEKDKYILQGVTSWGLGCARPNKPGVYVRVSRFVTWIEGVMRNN
Human Plasmin, sequence (P00747 97-580 partner limits assumed): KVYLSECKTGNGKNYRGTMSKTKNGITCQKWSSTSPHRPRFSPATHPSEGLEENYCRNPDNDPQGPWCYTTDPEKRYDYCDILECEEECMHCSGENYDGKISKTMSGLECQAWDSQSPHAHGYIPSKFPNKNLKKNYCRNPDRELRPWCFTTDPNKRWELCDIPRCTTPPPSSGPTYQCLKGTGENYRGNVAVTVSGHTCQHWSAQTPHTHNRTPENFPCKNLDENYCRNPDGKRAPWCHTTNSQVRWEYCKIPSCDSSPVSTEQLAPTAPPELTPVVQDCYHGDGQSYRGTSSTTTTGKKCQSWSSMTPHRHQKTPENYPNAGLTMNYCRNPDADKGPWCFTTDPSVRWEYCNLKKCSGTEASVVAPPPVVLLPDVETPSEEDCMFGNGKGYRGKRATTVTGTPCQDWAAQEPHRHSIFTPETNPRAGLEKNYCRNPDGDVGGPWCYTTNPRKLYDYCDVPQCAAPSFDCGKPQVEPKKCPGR
Human Plasma Kallikrein, sequence (P03952 391-638 limits assumed): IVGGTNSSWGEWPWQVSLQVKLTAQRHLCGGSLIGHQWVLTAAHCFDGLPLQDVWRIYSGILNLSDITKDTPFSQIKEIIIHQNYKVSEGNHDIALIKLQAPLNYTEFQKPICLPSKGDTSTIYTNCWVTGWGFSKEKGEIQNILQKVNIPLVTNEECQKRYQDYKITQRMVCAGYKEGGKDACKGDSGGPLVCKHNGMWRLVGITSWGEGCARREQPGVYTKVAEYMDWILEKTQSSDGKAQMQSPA
Human Plasma Kallikrein, sequence (P03952 20-390 partner limits assumed): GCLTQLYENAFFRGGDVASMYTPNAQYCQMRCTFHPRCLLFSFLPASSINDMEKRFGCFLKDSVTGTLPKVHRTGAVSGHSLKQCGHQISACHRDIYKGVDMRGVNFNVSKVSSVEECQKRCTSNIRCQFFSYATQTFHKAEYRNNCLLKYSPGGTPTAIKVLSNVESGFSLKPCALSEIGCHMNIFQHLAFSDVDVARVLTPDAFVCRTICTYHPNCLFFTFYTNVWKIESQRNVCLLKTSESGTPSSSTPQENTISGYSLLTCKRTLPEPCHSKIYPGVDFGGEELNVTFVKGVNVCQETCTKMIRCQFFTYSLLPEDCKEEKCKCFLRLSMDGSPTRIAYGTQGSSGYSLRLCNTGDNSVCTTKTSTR
`N=C(N)Nc1ccc2c(c1)C(C(=O)Oc1cccc3ccccc13)CCC2` (stereo not drawn) [Compound 159]: the IC50 amounted to 320 µM.

Take `N#Cc1ccc(OC(=O)C2CCCc3ccc(NC(=N)N)cc32)cc1` (stereo not drawn) [Compound 163]: the IC50 amounted to 130 µM.

Consider `N=C(N)Nc1cccc2c1CCCC2C(=O)Oc1cccc2c1CCCC2` (stereo not drawn) [Compound 164], for which the IC50 was 1000 µM.

The same assay, now with this note: read-out: Trypsin percent inhibition.
The inhibition is the percentage by which the read-out fell short of the control. Turning to `CCCCOc1ccc(OC(=O)C2CCCc3c(NC(=N)N)cccc32)cc1` (stereo not drawn) [Compound 116], the inhibition at 1000 µM was < 3.2%.

Consider `Cc1ccc(OC(=O)C2CCCc3ccc(NC(=N)N)cc32)cc1` (stereo not drawn) [Compound 136], for which the inhibition at 1000 µM came out at 17.5%.

As for `COc1cccc(OC(=O)C2CCCc3ccc(NC(=N)N)cc32)c1` (stereo not drawn) [Compound 139], the inhibition at 1000 µM is 46%.

As for `CCOC(=O)COC(=O)CCc1ccc(OC(=O)C2CCCc3ccc(NC(=N)N)cc32)cc1` (stereo not drawn) [Compound 157], the inhibition at 1000 µM came to 48.8%.

Turning to `CN(C)C(=O)COC(=O)CCc1ccc(OC(=O)C2CCCc3ccc(NC(=N)N)cc32)cc1` (stereo not drawn) [Compound 158], the inhibition at 1000 µM turned out to be 29.1%.

In the case of `N=C(N)Nc1ccc2c(c1)C(C(=O)Oc1ccc(OC(=O)C3CCCc4ccc(NC(=N)N)cc43)cc1)CCC2` (stereo not drawn) [Compound 160], the inhibition at 1000 µM was determined as 40.5%.

Another assay has as its target Human Plasmin (Homo sapiens, UniProt P00747). In words: Inhibitory effect on ester-hydrolyzing activity of human plasmin (TAMe substrate). It is filed as biochemical. The conditions noted are these: at 10^-3 M; in vitro, TAMe; read-out: Plasmin percent inhibition. Here is the method: The enzyme-inhibitory activities in vitro of the compounds of this invention were measured by the following procedure according to the method of M. Muramatsu et al. [[…]. […] After the incubation, 1.5 ml of 2 M alkaline hydroxylamine was added and thoroughly mixed, and allowed to stand at room temperature for 15 minutes. […] It was measured by using 0.1 ml of plasmin (generated by activation of plasminogen with streptokinase) and TAMe as substrate following the method described in (1).
`N=C(N)Nc1ccc2c(c1)C(C(=O)Oc1cccc3ccccc13)CCC2` (stereo not drawn) [Compound 159]: the inhibition at 1000 µM amounted to 27.6%.

On to `N=C(N)Nc1cccc2c1CCCC2C(=O)Oc1cccc2c1CCCC2` (stereo not drawn) [Compound 164], for which the inhibition at 1000 µM worked out at 46.1%.

The same assay, now with this note: in vitro, TAMe; Table 4 bracketed value; read-out: Plasmin ID50.
In the case of `CCCCOc1ccc(OC(=O)C2CCCc3c(NC(=N)N)cccc32)cc1` (stereo not drawn) [Compound 116], the IC50 worked out at 1000 µM.

For `COc1cccc(OC(=O)C2CCCc3ccc(NC(=N)N)cc32)c1` (stereo not drawn) [Compound 139], the IC50 turned out to be 1000 µM.

On to `CCOC(=O)COC(=O)CCc1ccc(OC(=O)C2CCCc3ccc(NC(=N)N)cc32)cc1` (stereo not drawn) [Compound 157], for which the IC50 was found to be 210 µM.

In the case of `CN(C)C(=O)COC(=O)CCc1ccc(OC(=O)C2CCCc3ccc(NC(=N)N)cc32)cc1` (stereo not drawn) [Compound 158], the IC50 amounted to 400 µM.

As to `N=C(N)Nc1ccc2c(c1)C(C(=O)Oc1ccc(OC(=O)C3CCCc4ccc(NC(=N)N)cc43)cc1)CCC2` (stereo not drawn) [Compound 160], the IC50 was 100 µM.

Regarding `N#Cc1ccc(OC(=O)C2CCCc3ccc(NC(=N)N)cc32)cc1` (stereo not drawn) [Compound 163], the IC50 turned out to be 73 µM.

The same assay, now with this note: read-out: Plasmin percent inhibition.
Turning to `Cc1ccc(OC(=O)C2CCCc3ccc(NC(=N)N)cc32)cc1` (stereo not drawn) [Compound 136], the inhibition at 1000 µM is < 3.2%.

The target in the next assay is Human Plasma Kallikrein (Homo sapiens, UniProt P03952). Nature of the assay: Inhibitory effect on ester-hydrolyzing activity of human plasma kallikrein (TAMe substrate). Conditions: in vitro, TAMe; Table 4 bracketed value; read-out: Kallikrein ID50. The assay is classed as biochemical. The method, then:
as §1
`CN(C)C(=O)COC(=O)CCc1ccc(OC(=O)C2CCCc3ccc(NC(=N)N)cc32)cc1` (stereo not drawn) [Compound 158]: the IC50 is 420 µM.

As for `N=C(N)Nc1ccc2c(c1)C(C(=O)Oc1cccc3ccccc13)CCC2` (stereo not drawn) [Compound 159], the IC50 worked out at 110 µM.

Regarding `N=C(N)Nc1ccc2c(c1)C(C(=O)Oc1ccc(OC(=O)C3CCCc4ccc(NC(=N)N)cc43)cc1)CCC2` (stereo not drawn) [Compound 160], the IC50 was 230 µM.

On to `N#Cc1ccc(OC(=O)C2CCCc3ccc(NC(=N)N)cc32)cc1` (stereo not drawn) [Compound 163], for which the IC50 came out at 52 µM.

In the case of `N=C(N)Nc1cccc2c1CCCC2C(=O)Oc1cccc2c1CCCC2` (stereo not drawn) [Compound 164], the IC50 was 1000 µM.

The same assay, now with this note: read-out: Kallikrein percent inhibition.
Turning to `CCCCOc1ccc(OC(=O)C2CCCc3c(NC(=N)N)cccc32)cc1` (stereo not drawn) [Compound 116], the inhibition at 1000 µM was 29.3%.

Consider `Cc1ccc(OC(=O)C2CCCc3ccc(NC(=N)N)cc32)cc1` (stereo not drawn) [Compound 136], for which the inhibition at 1000 µM was < 3.2%.

Turning to `COc1cccc(OC(=O)C2CCCc3ccc(NC(=N)N)cc32)c1` (stereo not drawn) [Compound 139], the inhibition at 1000 µM was 36.7%.

As to `CCOC(=O)COC(=O)CCc1ccc(OC(=O)C2CCCc3ccc(NC(=N)N)cc32)cc1` (stereo not drawn) [Compound 157], the inhibition at 1000 µM was found to be 48.5%.

The next assay has as its target Bovine Thrombin (Bos taurus, UniProt P00735). In words: Inhibitory effect on ester-hydrolyzing activity of bovine thrombin (TAMe substrate). The assay is classed as biochemical.
Conditions: not given
The method, then: The enzyme-inhibitory activities in vitro of the compounds of this invention were measured by the following procedure according to the method of M. Muramatsu et al. [M. Muramatsu, T. Onishi, S. Makino, Y. Hayashi and S. Fujii: J. Biochem., 58, 214 (1965)]
To 0.1 ml of trypsin (5 μg/ml) were added 0.5 ml of 0.1 M borate buffer solution (pH 8.6) containing 10 mM CaCl2, and 0.1 ml of a varying concentration of an inhibitor solution, and preincubation was carried out at 37° C. for 5 minutes. Then, 10 μmoles of the substrate, TAMe (tosylarginine methyl ester), was added, and incubation was preformed at 37° C. for 30 minutes.
After the incubation, 1.5 ml of 2 M alkaline hydroxylamine was added and thoroughly mixed, and allowed to stand at room temperature for 15 minutes. Then, 1.0 ml of each of 18% trichloroacetic acid, 4 N HCl and 10% FeCl3 was added and thoroughly mixed. If necessary, the mixture was centrifuged at 3,000 rpm for 10 minutes, and the absorbance of the supernatant was measured at 530 nm.
It was measured by using 0.4 ml of bovine thrombin […], 0.02 M sodium phosphate buffer solution (pH 7.4) and TAMe as substrate following the method described in (1).
As for `CCCCOc1ccc(OC(=O)C2CCCc3c(NC(=N)N)cccc32)cc1` (stereo not drawn) [Compound 116], the IC50 is 1000 µM.

On to `Cc1ccc(OC(=O)C2CCCc3ccc(NC(=N)N)cc32)cc1` (stereo not drawn) [Compound 136], for which the IC50 worked out at 900 µM.

Compound `COc1cccc(OC(=O)C2CCCc3ccc(NC(=N)N)cc32)c1` (stereo not drawn) [Compound 139] came in with an IC50 of 260 µM.

Consider `CCOC(=O)COC(=O)CCc1ccc(OC(=O)C2CCCc3ccc(NC(=N)N)cc32)cc1` (stereo not drawn) [Compound 157], for which the IC50 was found to be 120 µM.

`CN(C)C(=O)COC(=O)CCc1ccc(OC(=O)C2CCCc3ccc(NC(=N)N)cc32)cc1` (stereo not drawn) [Compound 158] showed an IC50 of 100 µM.

Consider `N=C(N)Nc1ccc2c(c1)C(C(=O)Oc1ccc(OC(=O)C3CCCc4ccc(NC(=N)N)cc43)cc1)CCC2` (stereo not drawn) [Compound 160], for which the IC50 came out at 54 µM.

As to `N#Cc1ccc(OC(=O)C2CCCc3ccc(NC(=N)N)cc32)cc1` (stereo not drawn) [Compound 163], the IC50 is 17 µM.

The assay is the same for the next values; noted with them: at 10^-3 M; in vitro, TAMe; read-out: Thrombin percent inhibition.
Consider `N=C(N)Nc1ccc2c(c1)C(C(=O)Oc1cccc3ccccc13)CCC2` (stereo not drawn) [Compound 159], for which the inhibition at 1000 µM was 46%.

As for `N=C(N)Nc1cccc2c1CCCC2C(=O)Oc1cccc2c1CCCC2` (stereo not drawn) [Compound 164], the inhibition at 1000 µM was < 3.2%.

For a further assay, the target named is T2, Human Cl Esterase (Homo sapiens, UniProt P09871).
T2 sequence (P09871 438-688 limits assumed): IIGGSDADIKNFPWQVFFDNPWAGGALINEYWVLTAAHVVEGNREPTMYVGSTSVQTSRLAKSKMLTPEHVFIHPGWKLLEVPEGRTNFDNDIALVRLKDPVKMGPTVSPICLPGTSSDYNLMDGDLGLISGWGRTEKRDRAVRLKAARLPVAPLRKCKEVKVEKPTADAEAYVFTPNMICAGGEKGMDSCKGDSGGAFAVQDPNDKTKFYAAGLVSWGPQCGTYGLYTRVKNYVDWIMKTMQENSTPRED
T2 sequence (P09871 16-437 partner limits assumed): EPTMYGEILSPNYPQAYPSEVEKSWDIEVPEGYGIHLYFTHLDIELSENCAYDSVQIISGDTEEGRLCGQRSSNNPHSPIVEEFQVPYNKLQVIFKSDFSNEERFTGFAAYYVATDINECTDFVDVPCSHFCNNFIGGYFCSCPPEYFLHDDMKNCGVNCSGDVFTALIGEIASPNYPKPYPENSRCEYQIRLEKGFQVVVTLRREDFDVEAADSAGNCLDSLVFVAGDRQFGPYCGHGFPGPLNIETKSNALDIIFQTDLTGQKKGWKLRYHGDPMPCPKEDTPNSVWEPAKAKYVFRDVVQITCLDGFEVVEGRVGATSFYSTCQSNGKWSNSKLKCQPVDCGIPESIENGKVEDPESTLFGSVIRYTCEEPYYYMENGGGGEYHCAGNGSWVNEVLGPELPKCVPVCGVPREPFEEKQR
In words: Inhibitory effect on ester-hydrolyzing activity of human Cl esterase (ATEe substrate). The conditions noted are these: in vitro, ATEe, pH 7.4; Table 4 bracketed value; read-out: Cl-esterase ID50. It is filed as biochemical.
Regarding `CCCCOc1ccc(OC(=O)C2CCCc3c(NC(=N)N)cccc32)cc1` (stereo not drawn) [Compound 116], the IC50 is 350 µM.

On to `Cc1ccc(OC(=O)C2CCCc3ccc(NC(=N)N)cc32)cc1` (stereo not drawn) [Compound 136], for which the IC50 is 540 µM.

For the compound `COc1cccc(OC(=O)C2CCCc3ccc(NC(=N)N)cc32)c1` (stereo not drawn) [Compound 139], the IC50 worked out at 450 µM.

As for `CCOC(=O)COC(=O)CCc1ccc(OC(=O)C2CCCc3ccc(NC(=N)N)cc32)cc1` (stereo not drawn) [Compound 157], the IC50 turned out to be 420 µM.

For `CN(C)C(=O)COC(=O)CCc1ccc(OC(=O)C2CCCc3ccc(NC(=N)N)cc32)cc1` (stereo not drawn) [Compound 158], the IC50 was 700 µM.

`N=C(N)Nc1ccc2c(c1)C(C(=O)Oc1cccc3ccccc13)CCC2` (stereo not drawn) [Compound 159]: the IC50 was determined as 180 µM.

For `N=C(N)Nc1ccc2c(c1)C(C(=O)Oc1ccc(OC(=O)C3CCCc4ccc(NC(=N)N)cc43)cc1)CCC2` (stereo not drawn) [Compound 160], the IC50 was determined as 430 µM.

Regarding `N#Cc1ccc(OC(=O)C2CCCc3ccc(NC(=N)N)cc32)cc1` (stereo not drawn) [Compound 163], the IC50 was 400 µM.

For the compound `N=C(N)Nc1cccc2c1CCCC2C(=O)Oc1cccc2c1CCCC2` (stereo not drawn) [Compound 164], the IC50 stood at 400 µM.

Values taken from patent publication US4214093A, “Amino- or guanidino-1,2,3,4-tetrahydro-1-naphthoic esters” (Torii & Co., Ltd., priority 1977, dated 1980).
